The results in this text go back to patent US20230416228A1 (Forkhead Biotherapeutics, Inc., priority 2020, published 2023).

What is called IC50 is the midpoint of a concentration-inhibition curve.

The target of the assay is T1, human FOXO1 (constitutively active form Thr24Ala, Ser256Ala, Ser319Ala) (Homo sapiens, UniProt Q12778, S256A/S319A/T24A).
T1 construct: expressed in transfected cells; host or cells: HEK293 cells transfected with pcDNA3.1 plasmid
Briefly: FOXO1 inhibitor activity assay: cell-based transcriptional (luciferase) reporter assay in HEK293 cells. As to conditions: HEK293 cells transfected with insulin response element firefly luciferase reporter, FOXO1 and Renilla luciferase; 10-point dose response 50 μM to 2.5 nM; 24 hours. The protocol:
The inhibitory activities of compounds on FOXO1 were determined by a cell-based transcriptional reporter assay. HEK293 cells were plated onto either 384-well poly-D-lysine coated plates (at 7500 cells per well) or 96-well plates (at 20000 cells per well) in low glucose Eagle's Minimum Essential Medium (EMEM) containing 1% fetal bovine serum, and incubated overnight at 37° C. and 5% CO2. […] Duplicate wells were included for each treatment condition. Cells were incubated for 24 hours at 37° C. and 5% CO2. Luciferase activities in each well were measured using Dual-Glog Luciferase Assay System (Promega) according to manufacturer's protocol and an Envision plate reader suitable for luminescence detection. Firefly luciferase activity was divided by Renilla luciferase activity to calculate a ratio for each well. The ratio in wells containing cells transfected with all 3 plasmids listed above and receiving only DMSO without compound addition was set to 100%. The ratio in wells containing cells transfected with plasmid (1), plasmid (3), and pcDNA3.1 containing the open reading frame of red fluorescent protein (instead of human FOXO1) and treated with DMSO was set to 0%. The ratio in each well receiving compound treatment was normalized and expressed as a percentage. Data were fit by 4-parameter logistic regression to determine IC50 and maximal inhibition values. Each compound was tested in a minimum of 2 independent experiments.
For orientation: In a reporter assay the amount or activity of a reporter protein is the signal.

T1 sequence (Q12778 whole entry T24A/S256A/S319A): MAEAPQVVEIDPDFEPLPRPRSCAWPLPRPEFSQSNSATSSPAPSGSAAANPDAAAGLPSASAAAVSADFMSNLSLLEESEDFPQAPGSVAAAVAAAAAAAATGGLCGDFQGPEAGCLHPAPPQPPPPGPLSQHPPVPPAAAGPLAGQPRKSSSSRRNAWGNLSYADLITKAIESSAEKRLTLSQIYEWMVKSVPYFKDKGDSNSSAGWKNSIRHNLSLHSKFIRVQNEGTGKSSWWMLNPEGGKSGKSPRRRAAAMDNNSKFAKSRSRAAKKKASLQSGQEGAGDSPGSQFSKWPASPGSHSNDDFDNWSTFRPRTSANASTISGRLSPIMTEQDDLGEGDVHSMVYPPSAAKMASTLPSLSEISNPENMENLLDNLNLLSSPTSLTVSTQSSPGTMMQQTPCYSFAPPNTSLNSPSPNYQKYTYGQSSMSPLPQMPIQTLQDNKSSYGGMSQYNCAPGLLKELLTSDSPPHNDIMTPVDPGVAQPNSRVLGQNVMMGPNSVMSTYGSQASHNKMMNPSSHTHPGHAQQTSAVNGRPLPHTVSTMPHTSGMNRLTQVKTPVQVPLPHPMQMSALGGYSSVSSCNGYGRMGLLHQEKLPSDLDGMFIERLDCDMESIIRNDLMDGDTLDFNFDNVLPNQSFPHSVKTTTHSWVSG

In turn, `COc1ccc2[nH]c(-c3cc(NC(=O)c4ccc(N5CCC(CO)CC5)nc4)n[nH]3)nc2c1` [Compound A-109, 6-[4-(hydroxymethyl)-1-piperidyl]-N-[5-(5-methoxy-1H-benzimidazol-2-yl)-1H-pyrazol-3-yl]pyridine-3-carboxamide] gave an IC50 below 100 nM.

Compound `COC[C@H](C)Nc1ccc(C(=O)Nc2cc(-c3nc4ccccc4[nH]3)[nH]n2)cn1` [Compound A-73, N-[5-(1H-benzimidazol-2-yl)-1H-pyrazol-3-yl]-6-[[(1S)-2-methoxy-1-methyl-ethyl]amino]pyridine-3-carboxamide] gave a concentration for half-maximal inhibition (IC50) of 300 to 1000 nM. The compound `Cn1nc(NC(=O)c2ccc(N3CCN(C(=O)COCCO)CC3)nc2)cc1-c1nc2ccccc2[nH]1` [Compound A-287, N-[5-(1H-benzimidazol-2-yl)-1-methyl-pyrazol-3-yl]-6-[4-[2-(2-hydroxyethoxy)acetyl]piperazin-1-yl]pyridine-3-carboxamide] had an IC50 of 300 to 1000 nM. With `O=C(O)COc1ccc(C(=O)Nc2cc(-c3nc4ccccc4[nH]3)[nH]n2)cc1Cl` [Compound A-72, 2-[4-[[5-(1H-benzimidazol-2-yl)-1H-pyrazol-3-yl]carbamoyl]-2-chloro-phenoxy]acetic acid], the half-inhibitory concentration (IC50) was above 1000 nM.

`O=C(Nc1cc(-c2nc3ccccc3[nH]2)[nH]n1)c1ccc(N2CC3(COC3)C2)nc1` [Compound A-45, N-[5-(1H-benzimidazol-2-yl)-1H-pyrazol-3-yl]-6-(2-oxa-6-azaspiro[3.3]heptan-6-yl)pyridine-3-carboxamide] had a 50% inhibitory concentration (IC50) above 1000 nM. Under `O=C(Nc1cc(-c2nc3ccccc3[nH]2)[nH]n1)c1ccc(N2CCNCC2)nc1` [Compound A-218, N-[5-(1H-benzimidazol-2-yl)-1H-pyrazol-3-yl]-6-piperazin-1-yl-pyridine-3-carboxamide] stands 100 to 300 nM.

For the compound `COCCN1CCN(c2ccc(C(=O)Nc3cc(-c4nc5ccccc5[nH]4)n(CCO)n3)cn2)CC1` [Compound A-198, N-[5-(1H-benzimidazol-2-yl)-1-(2-hydroxyethyl)pyrazol-3-yl]-6-[4-(2-methoxyethyl)piperazin-1-yl]pyridine-3-carboxamide], the IC50 lay in the range of 300 to 1000 nM. The same measure for `Cn1nc(NC(=O)c2ccc(N3CCNCC3)cc2)cc1-c1nc2ccccc2[nH]1` [Compound A-217, N-[5-(1H-benzimidazol-2-yl)-1-methyl-pyrazol-3-yl]-4-piperazin-1-yl-benzamide]: 100 to 300 nM; for `[2H]C([2H])([2H])OCCN1CCN(c2ccc(C(=O)Nc3cc(-c4nc5ccccc5[nH]4)n(C)n3)cn2)CC1` [Compound A-260, N-[5-(1H-benzimidazol-2-yl)-1-methyl-pyrazol-3-yl]-6-[4-[2-(trideuterio-methoxy)ethyl]piperazin-1-yl]pyridine-3-carboxamide]: 100 to 300 nM; for `CC(=O)N1CCN(c2ccc(C(=O)Nc3cc(-c4nc5ccccc5[nH]4)n(C)n3)cn2)CC1CO` (stereo not shown) [Compound A-254, 6-14-acetyl-3-(hydroxymethyl)piperazin-1-yl-N-[5-(1H-benzimidazol-2-yl)-1-methyl-pyrazol-3-yl]pyridine-3-carboxamide]: above 1000 nM. In turn, `O=C(Nc1cc(-c2nc3cc(Cl)ccc3[nH]2)[nH]n1)c1ccc(OCCO)c(Cl)c1` [Compound A-121, 3-chloro-N-[5-(5-chloro-1H-benzimidazol-2-yl)-1H-pyrazol-3-yl]-4-(2-hydroxyethoxy)benzamide] showed an IC50 of 100 to 300 nM. The same measure for `COCCN1CCN(c2ccc(C(=O)Nc3cc(-c4nc5cccc(F)c5[nH]4)n(C)n3)cn2)CC1` [Compound A-154]: 100 to 300 nM; for `COc1cc(C(=O)Nc2cc(-c3nc4ccccc4[nH]3)[nH]n2)ccc1OCCO` [Compound A-120, N-[5-(1H-benzimidazol-2-yl)-1H-pyrazol-3-yl]-4-(2-hydroxyethoxy)-3-methoxy-benzamide]: 300 to 1000 nM.
